The record followed here is patent publication US20170122958A1, “Enzymes Functional Probes” (University of Dundee, priority 2013, published 2017).

Where “and” joins values, the source holds several entries; their conditions need not be identical. Identical values can stand only once.

Test [1] deals with T1, Brd2(2) (Homo sapiens, UniProt P25440).
T1 construct: Plasmids of the eight single BET bromodomain constructs Brd2(1), Brd2(2), Brd3(1), Brd3(2); His6 (N); made in house; host or cells: E. coli BL21(DE3)
T1 sequence (P25440 344-453 limits assumed): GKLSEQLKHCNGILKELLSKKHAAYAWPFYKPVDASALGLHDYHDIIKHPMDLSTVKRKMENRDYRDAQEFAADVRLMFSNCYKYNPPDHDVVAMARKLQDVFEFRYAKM
In words: ITC reverse titration of protein into compound. The format is binding. The note with it: ITC 25° C.; for Kd: Kd Brd2(2). As to the method: (§1) ITC experiments were carried out on a ITC200 instrument from MicroCal™ Experiments were conducted at 3 different temperatures 15° C., 25° C. and 30° C., while stirring at 1000 rpm. Buffers of proteins, peptide and compounds were matched to 20 mM HEPES pH 7.5 at 25° C. and 100 mM NaCl. Frozen protein was buffer exchanged as described for the DSF experiments. Each titration comprised 1 initial injection of 0.4 μl lasting 0.8 s, followed by 19 injections of 2 μl lasting 4 s each at 2 min intervals. The initial injection was discarded during data analysis. Standard and reverse titrations were conducted depending on the binding partners.
(§2) Reverse titrations were conducted to test the binding of the known ligands and the novel chemical probes to the wild types and the mutants. Experiments were carried out either at 25° C. or 30° C. […] In cases where the compound was solubilized in dimethyl sulfoxide, DMSO concentration was adjusted to 1% both in the syringe and in the cell.
(§3) All the data was fitted to a single binding site model using the Microcal LLC ITC200 Origin software provided by the manufacturer to yield enthalpies of binding (ΔH) and binding constants (Kas). Further thermodynamic parameters were calculated from these values (changes in entropy ΔS, changes in free energy AG and dissociation constants (Kds)).

Test [2] deals with T2, Brd2(1) (Homo sapiens, UniProt P25440).
T2 construct: Plasmids of the eight single BET bromodomain constructs Brd2(1), Brd2(2), Brd3(1), Brd3(2); His6 (N); made in house; host or cells: E. coli BL21(DE3)
T2 sequence (P25440 74-180 limits assumed): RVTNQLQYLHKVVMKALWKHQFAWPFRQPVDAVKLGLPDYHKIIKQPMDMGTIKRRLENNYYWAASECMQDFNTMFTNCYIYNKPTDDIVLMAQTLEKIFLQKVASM
In words: ITC reverse titration of protein into compound. The format is binding. The note with it: for ΔH Brd2(1): ITC 25° C. As to the method:
as §1, §2, §3

In test [3] the target is Brd2(1)*(Leu110-Ala) (Homo sapiens, UniProt P25440, L110A). Briefly: ITC reverse titration of protein into compound. The format is binding. Set-up: Plasmids of the eight single BET bromodomain constructs Brd2(1), Brd2(2), Brd3(1), Brd3(2), Brd4(1), Brd4(2), Brdt(1) and Brdt(2); His6 (N); made in house; host or cells: E. coli BL21(DE3). The note with it: for ΔH Brd2(1)* (Leu110-Ala): ITC 25° C.; for Selectivity factor Kd WT/Kd Leu/Ala: 30° C. As to the method:
as §1, §2, §3

The target of test [4] is Brd2(2)*(Leu383-Ala) (Homo sapiens, UniProt P25440, L383A). In words: ITC reverse titration of protein into compound. The format is binding. Also on record: Plasmids of the eight single BET bromodomain constructs Brd2(1), Brd2(2), Brd3(1), Brd3(2), Brd4(1), Brd4(2), Brdt(1) and Brdt(2); His6 (N); made in house; host or cells: E. coli BL21(DE3). Particulars: for ΔH Brd2(2)* (Leu383-Ala) / Kd: ITC 25° C.; for Kd: Kd Brd2(2)* (Leu383-Ala); for Selectivity factor Kd WT/Kd Leu/Ala: 30° C. How it is done:
as §1, §2, §3

In test [5] the target is T3, double Leu(94,387)/Ala mutant of GFP-Brd4 (Homo sapiens, UniProt O60885, L387A/L94A).
T3 construct: U2OS cells transfected with full-length human GFP-brd4; expressed in transfected cells; host or cells: U2OS human osteosarcoma cells
In words: FRAP in transfected U2OS cells. The format is cell-based. The note with it: double Leu(94,387)/Ala mutant GFP-Brd4, 1 μM compound. How it is done:
To establish whether selectivity could also be observed within cells, we developed fluorescence recovery after photobleaching (FRAP) assays using full length human GFP-BRD4 transfected into human osteosarcoma cells (U2OS). […] The data shown represent the mean±SEM (n=35-50). Statistical significance was determined by one-tailed t tests: *<0.05; **P<0.01; ***P<0.001; n.s. not significant.
Fluorescence recovery after photobleaching (FRAP) experiments were performed in human osteosarcoma U2OS cells transfected with mammalian expression constructs encoding wild type and mutant GFP chimeras of Brd4. Cells were cultured in DMEM (Gibco) supplemented with fetal bovine serum, Penicillin/Streptamycin and L-Glutamine. Cells were seeded into glass bottom dishes (Willco) to about 40% confluency and transfected with the constructs using Effectene (QIAGEN) at least 18 h before the experiment. […] FRAP studies were performed using a DeltaVision Core mounted on an Olympus IX70 stand with a 60×1.4NA plan apo objective lens equipped with a heated chamber set to 37° C. and a Quantifiable Laser Module (QLM) with 10 mW 488 nm solid state laser delivering a diffraction limited spot to the centre field of view. […] FRAP data was analysed using the SoftWorX software. It was fitted to a 2-dimensional recovery curve using the method of Axelrod as implemented within the software and half-times of recovery were calculated.

Chain of Brd2(1)*(Leu110-Ala) (P25440 74-180 L110A limits assumed): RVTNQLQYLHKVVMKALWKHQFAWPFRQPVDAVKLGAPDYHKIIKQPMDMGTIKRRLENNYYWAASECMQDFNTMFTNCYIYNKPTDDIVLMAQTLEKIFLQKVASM
Chain of Brd2(2)*(Leu383-Ala) (P25440 344-453 L383A limits assumed): as the sequence (P25440 344-453 limits assumed) above, with L40A counted along it

`COC(=O)[C@H](C)[C@@H]1N=C(c2ccc(Cl)cc2)c2cc(OC)ccc2-n2c(C)nnc21` (racemic) [Compound 7, (+−)-methyl (R)-2-((S)-6-(4-chlorophenyl)-8-methoxy-1-methyl-4H-benzo[f][1,2,4]triazolo[4,3-a][1,4]diazepin-4-yl)propanoate]: in test [1], the “ΔH Brd2(2)” value was -22.43 ± 0.4895 kJ/mol; the Kd is 0.3 µM and 0.298 µM. In test [2], binding was characterised by a dissociation constant (Kd) of 1.47 µM and the “ΔH Brd2(1)” value is -36.2 ± 0.5678 kJ/mol. In test [3], the Kd is 0.017 µM and the “ΔH Brd2(1)* (Leu110-Ala)” value is recorded as −16780 ± 161.4 cal/mol. Moreover, in test [4], the “ΔH Brd2(2)* (Leu383-Ala)” value is -52.76 ± 0.3601 kJ/mol; the Kd was 0.022 µM and 0.0223 µM.

As to `CC[C@@H](C(=O)OC)[C@@H]1N=C(c2ccc(Cl)cc2)c2cc(OC)ccc2-n2c(C)nnc21` (racemic) [Compound 11, (+−)-methyl (R)-2-((S)-6-(4-chlorophenyl)-8-methoxy-1-methyl-4H-benzo[f][1,2,4]triazolo[4,3-a][1,4]diazepin-4-yl)butanoate], in test [1], the “ΔH Brd2(2)” value was -15.07 ± 0.356 kJ/mol. Besides, the Kd amounted to 2.2 ± 0.4 µM in test [1], 1.78 ± 2 µM in test [2], 0.0427 ± 0.0078 µM in test [3] and 0.0217 ± 0.0056 µM in test [4]. Further, the “ΔH Brd2(1)” value in test [2] was -12.37 ± 0.897 kJ/mol. Also, the “Fluorescence recovery after photobleaching (recovery time)” value in test [5] was “recovery times comparable to the iBET control”. In test [3], the “ΔH Brd2(1)* (Leu110-Ala)” value is −16220 ± 130.9 cal/mol. For the same compound, the “Selectivity factor Kd WT/Kd Leu/Ala” value is reported as 123 in test [3] (brd2(1)L110A vs WT brd2(1)); 236 in test [3] (brd2(1)L110A vs WT brd2(2)); 96 in test [3] (brd2(1)L110A vs WT brd3(1)); 101 in test [3] (brd2(1)L110A vs WT brd3(2)); 174 in test [3] (brd2(1)L110A vs WT brd4(1)); 138 in test [3] (brd2(1)L110A vs WT brd4(2)). In addition, the “Selectivity factor Kd WT/Kd Leu/Ala” value stood at 117 in test [3] (brd2(1)L110A vs WT brdt(1)); 167 in test [3] (brd2(1)L110A vs WT brdt(2)); 105 in test [4] (brd2(2)L383A vs WT brd2(1)); 203 in test [4] (brd2(2)L383A vs WT brd2(2)); 82 in test [4] (brd2(2)L383A vs WT brd3(1)); 87 in test [4] (brd2(2)L383A vs WT brd3(2)). Moreover, the “Selectivity factor Kd WT/Kd Leu/Ala” value in test [4] (brd2(2)L383A vs WT brd4(1)) is on record as 150; in test [4] (brd2(2)L383A vs WT brd4(2)), 118; in test [4] (brd2(2)L383A vs WT brdt(1)), 101; in test [4] (brd2(2)L383A vs WT brdt(2)) it was 144. In test [3] (mutated Brd2(1) vs all other (wild type) bromodomains), the “Selectivity against all other bromodomains” value is on record as at least 96 fold. The “ΔH Brd2(2)* (Leu383-Ala)” value in test [4] was -44.811 ± 0.4301 kJ/mol.

In general, Kd refers to the concentration at which binding is half-saturated. Low values mean higher affinity, high ones lower affinity.
